One series deals with T1, ß-lactoglobulin (Bos taurus, UniProt P02754).
T1 sequence (P02754 17-178): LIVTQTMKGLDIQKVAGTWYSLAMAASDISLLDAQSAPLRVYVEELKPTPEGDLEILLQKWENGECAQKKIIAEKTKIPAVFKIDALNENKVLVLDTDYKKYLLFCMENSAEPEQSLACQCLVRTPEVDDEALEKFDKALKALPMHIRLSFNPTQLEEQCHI
Description: Chaperone activity assay: heat-induced BLG aggregation, Tol3/S25 readout. The format is biochemical. To be noted: 0.4 mg/ml HSP 27, 8 mg/ml ß-lactoglobulin (mass ratio 1:20), 68° C. As for the experimental part: Aggregation of ß-lactoglobulin was monitored in the presence or absence of the chaperone HSP 27. Aggregation of 8 mg/ml ß-lactoglobulin was monitored using 1.25 μM Tol3 and 1.25 μM S25 in PBS, pH 7.4 with 2.5 mM EDTA and 0.05% sodium azide. When the chaperone HSP 27 was added it was added to a final concentration of 0.4 mg/ml. HSP 27 was also run in the absence of R-lactoglobulin as a control. Aggregation was initiated by heating the protein solution to 68° C. in a 96 well half-volume clear plate (Biomol international, Inc). The fluorescence intensity was then recorded every 2 minutes, with shaking between reads. The excitation wavelength was set to 550 nm and the emission was set to 610 nm on a BMG Fluorstar plate reader. The fluorescence intensity of the starting point was subtracted from the remaining points. […] Since Hsp 27 is binding with unfolded BLG intermediate, thus preventing protein aggregation, these styryl cyanine dyes are detecting protein aggregation, as opposed to unfolding.

A short description of series [1]: Fluorescence excitation and emission spectra of dye freely dissolved in buffer. It counts as physicochemical. To be noted: 50 mM Tris-HCl, pH 7.8, 10 μM dye, room temperature. As for the experimental part:
(§1) Fluorescent readings were carried out in 50 mM Tris-HCl, pH 7.8 using 10 μM dye. […] Fluorescence excitation and emission spectra were collected on a Cary Eclipse fluorescence spectrophotometer (Varian, Australia). Fluorescence spectra were measured with excitation and emission slit widths set to 5 nm, and at a constant PMT voltage. Spectroscopic measurements were performed in standard quartz cells. All measurements were made at the respective excitation maxima of each dye. All measurements were carried out at room temperature.

Series [2] deals with T2, recombinant human alpha-synuclein (ASN) aggregate (Homo sapiens, UniProt P37840).
T2 construct: purchased Sigma-Aldrich
As to the kind of experiment: Fluorescence excitation and emission spectra of dye in the presence of aggregated alpha-synuclein. To be noted: 1 μM aggregated ASN, 50 mM Tris-HCl, pH 7.8, 10 μM dye. It counts as binding. As for the experimental part: as §1

The subject of series [3] is goat-anti-mouse IgG aggregate. As to the kind of experiment: Fluorescence enhancement (aggregate/native IgG) in the presence of excipients. It counts as binding. The conditions noted are these: for Fluorescence enhancement (aggregate/native IgG): 2.8 μM IgG, 0.625 μM dye. As for the experimental part: IgG aggregate was prepared by adjusting 5.83 mg/ml of purified goat-anti-mouse IgG (H&L, Pel Freez, Rogers, Ark.) to pH 2.7 using HCl and incubating at 22° C. for 24 hours. The assay was performed using 2.8 μM IgG, either native or aggregated, and a dye concentration of 0.625 μM. The protein and dye were mixed together for 15 minutes at 22° C., then this was further incubated in the presence of the excipients shown in the table. The fluorescence intensity of S-25, Tol3 and Y2150 were determined with a FLUOstar OPTIMA plate reader (BMG LABTECH) at excitation wavelength of 550 nm and emission wavelength of 610 nm; while the fluorescence intensity for Thioflavin-T was determined using a SpectraMAX GeminiXS (Molecular device, with Softmax Pro 7.0) using an excitation wavelength of 435 nm and emission wavelength of 495 nm. The fluorescence enhancement (aggregate/native IgG) is shown.

The next series deals with T3, β-lactoglobulin (BLG) (Bos taurus, UniProt P02754).
T3 sequence (P02754 17-178): T1 sequence (P02754 17-178)
As to the kind of experiment: Thermal shift assay of BLG aggregation. The format is binding. The conditions noted are these: BLG 4 or 16 mg/mL, heating 28° C. to 90° C. As for the experimental part: A solution containing 4 or 16 mg/mL of β-lactoglobulin (BLG) and 2×SYPRO® Orange dye (Molecular Probes, supplied as 5000× with unknown concentration) or 4 μM TOL3 or 4 μM S25 was prepared using 1×PBS, pH 7.4 as the dilution buffer. This solution was then loaded into LightCycler® capillaries (20 μL, Roche Diagnostics GmbH). These capillaries were then mounted on the sample holder of a LightCycler® 480 Real-Time PCR System (Roche), programmed to heat from 28° C. to 90° C. at 3° C./min, followed by cooling down to 28° C. at the same rate. The thermal shift curves were achieved by plotting fluorescence intensity vs. temperature. After the heating cycle, protein aggregates were visually apparent.

Series [4] concerns Rabbit-anti-goat IgG. Description: Fluorescence response to unfolded versus aggregated IgG in 4.55 M urea. The conditions noted are these: 6.67 μM Tol3. It counts as binding. As for the experimental part: (B) A solution containing aggregated IgG (formed as in Example 13 (B)) or monomeric IgG at 0.033 mg/mL, 4.55 M urea and 6.67 μM Tol3 was prepared and transferred into a microplate. After incubating at 4° C. degree for about 10 minutes, the fluorescence was recorded. Two control solutions without IgG, but with the same concentration of TOl3, were included, one including 4.55M urea, another without urea. From the previous chemical shift curve generated (seen in FIG. 16 (A)), 4.55 M urea is known to unfold approximately 60% of the IgG.

Another series deals with T4, Hen Egg White Lysozyme (Gallus gallus, UniProt P00698).
T4 construct: Hen egg white lysozyme was solubilized in 10 mM HCl; from tissue; host or cells: hen egg white
As to the kind of experiment: Inhibition of Lysozyme aggregation at pH 12.2, S-25/Tol3 readout. The format is biochemical. To be noted: 510 μM Chitotriose, 300 μM Lysozyme, aggregation induced at pH 12.2. As for the experimental part:
Hen egg white Lysozyme (300 μM) was incubated with or without N,N′,N″-triacetyl-chitotriose (Chitotriose, 510 μM) in 10 mM potassium phosphate, pH 7.3 for 16 hours. Aggregation was induced by 3.5 fold dilution into 50 mM potassium phosphate, pH 12.2. Aggregation was followed by removing an aliquot of the protein and diluting such that the final composition was 20 μM protein, 50 mM potassium phosphate, pH 7, 3 μM S-25 and 3 μM Tol3. Protein was incubated with dye for 15 minutes prior to determining the fluorescence using a BioTek Synergy Mx plate scanner, with excitation setting at 515 nm and emission setting at 603 nm, both with a 9 nm slit-width. The zero time point was taken before dilution to pH 12.2. Readings were taken in at least triplicate in a Greiner μClear black, clear bottom 96-well microplate. Aggregation was followed for several weeks at room temperature (19°-23° C.).

In series [5] the test system is Rabbit-anti-goat IgG. As to the kind of experiment: Chemical shift assay based on internal tryptophan fluorescence. It counts as biochemical. To be noted: 4.55 M urea; from chemical shift curve FIG. 16 (A). As for the experimental part: (A) Chemical shift assay based on internal tryptophan fluorescence: Rabbit-anti-goat IgG (Pel Freeze) in 1×PBS buffer of pH 7.4 was mixed with urea in 1×PBS to achieve a final IgG concentration of 0.25 mg/mL. After mixing on ice for 10 minutes, the fluorescence emission intensity at 330 nm was recorded by exciting at 280 nm using a MD-5020 fluorimeter (Phototechnology International). A chemical shift curve was plotted based on internal tryptophan fluorescence intensity at each given urea concentration. Urea denatures proteins but prevents them from aggregating.

T4 sequence (P00698 19-147): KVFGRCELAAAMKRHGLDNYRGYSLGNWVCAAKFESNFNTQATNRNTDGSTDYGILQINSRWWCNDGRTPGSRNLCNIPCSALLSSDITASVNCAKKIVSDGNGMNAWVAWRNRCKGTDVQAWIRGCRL

Hsp 27: heat shock protein, chaperone: the “Effect on heat-induced aggregation of BLG” value with ß-lactoglobulin is “significantly prevent the aggregation of BLG”.

Take `Cc1c[n+](CCCCCCCCCC[n+]2ccc(/C=C/c3ccc(N(C)C)cc3)c(C)c2)ccc1/C=C/c1ccc(N(C)C)cc1` [TOL3]: the “Dye freely dissolved in buffer: Emission wavelength” value in series [1] was found to be 611 nm. Besides, the “Dye freely dissolved in buffer: Excitation wavelength” value in series [1] amounted to 471 nm. Further, in series [2], the “In the presence of aggregate: Emission wavelength” value is 603 nm. Besides, the “In the presence of aggregate: Excitation wavelength” value in series [2] is given as 511 nm. The “Fluorescence enhancement (aggregate/native IgG)” value in series [3] (Ammonium Sulfate, 10 mM) came out at 15.6 fold; in series [3] (Ammonium Sulfate, 100 mM) it was 13.4 fold; in series [3] (Ammonium Sulfate, 300 mM) it was 16.9 fold; in series [3] (Arginine, 200 mM), 18.6 fold; in series [3] (Arginine, 500 mM), 17.6 fold; in series [3] (Ascoric Acid, 1 mM), 15.4 fold. The “Fluorescence enhancement (aggregate/native IgG)” value was 14.9 fold in series [3] (Calcium Chloride, 10 mM); 13.9 fold in series [3] (Calcium Chloride, 50 mM); 14.8 fold in series [3] (Calcium Chloride, 200 mM); 13.8 fold in series [3] (DTT, 1 mM); 16.3 fold in series [3] (Glycine, 0.5%); 15.5 fold in series [3] (Glycine, 2%). Also, the “Fluorescence enhancement (aggregate/native IgG)” value in series [3] (Lactose, 100 mM) is 19.9 fold; in series [3] (Lactose, 300 mM), 34.6 fold; in series [3] (Mannitol, 100 mM), 17.5 fold; in series [3] (Mannitol, 300 mM), 25.2 fold; in series [3] (Mannitol, 600 mM) it was 27.5 fold; in series [3] (Sodium Chloride, 10 mM), 16.0 fold. Further, the “Fluorescence enhancement (aggregate/native IgG)” value in series [3] (Sodium Chloride, 100 mM) amounted to 16.2 fold; in series [3] (Sodium Chloride, 1000 mM), 17.4 fold; in series [3] (Sorbitol, 100 mM) it was 20.0 fold; in series [3] (Sorbitol, 300 mM), 19.2 fold; in series [3] (Sorbitol, 600 mM) it was 29.3 fold; in series [3] (Trehalose, 100 mM) it was 18.9 fold. In addition, the “Fluorescence enhancement (aggregate/native IgG)” value in series [3] (Trehalose, 300 mM) stood at 20.1 fold; in series [3] (Trehalose, 600 mM), 30.4 fold; in series [3] (Tween 20, 0.01%), 8.5 fold; in series [3] (Tween 20, 0.2%), 3.4 fold; in series [3] (X100, 0.01%), 6.2 fold; in series [3] (X100, 0.2%), 3.4 fold. For the same compound, the “Fluorescence enhancement (aggregate/native IgG)” value in series [3] (X100, 1%) came out at 1.9 fold. The “Fluorescence enhancement (aggregate/native IgG), Average” value in series [3] (Average over all excipient conditions) was found to be 17.6 fold. For the same compound, at β-lactoglobulin (BLG), the “Detection of BLG thermal shift (melting) peak” value is given as “able to detect BLG thermal shift peaks”. Also, the “Fluorescence enhancement with IgG aggregates relative to controls without IgG” value in the series on Rabbit-anti-goat IgG [4] (aggregated IgG 0.033 mg/mL) was “significant fluorescence enhancement”. In addition, the “Fluorescence enhancement with unfolded IgG monomer relative to controls without IgG” value in the series on Rabbit-anti-goat IgG [4] (monomeric IgG 0.033 mg/mL) is recorded as “insignificant fluorescence enhancement”.

As for `CC(=O)N[C@H]1[C@H](O[C@H]2[C@H](O)[C@@H](NC(C)=O)C(O)O[C@@H]2CO)O[C@H](CO)[C@@H](O[C@@H]2O[C@H](CO)[C@@H](O)[C@H](O)[C@H]2NC(C)=O)[C@@H]1O` (stereo partly drawn) [Chitotriose, N,N′,N″-triacetyl-chitotriose], the “Effect on Lysozyme aggregation” value at Hen Egg White Lysozyme was “inhibits Lysozyme aggregation”.

Take `NC(N)=O` [urea]: the IgG unfolded entry in the series on Rabbit-anti-goat IgG [5] is on record as “approximately 60%”.

The record behind these values is patent US9932479B2, “Dyes and compositions, and processes for using same in analysis of protein aggregation and other applications” (Enzo Biochem, Inc., priority 2009, dated 2018).
